{
  "source": "patent US20010006794A1",
  "about": "“SCREENING FOR MODULATORS OF BIOMOLECULES” (priority 1995, published 2001)",
  "key": {"[1]": {"tested_on": "Salmonella typhimurium wild type", "format": "cell-based", "protocol": "Preliminary characterization of the utilization of large numbers of carbon sources can be carried out using manual or automated taxonomic screening devices, such as the Biolog MT, ES, GN or GP Microplate™. Alternatively, this can be performed using commercially available components. […] Briefly, strains were swabbed onto TSA plates and grown at a permissive temperature of 30° C. for 6 hours to provide an inoculum. The inoculum (MacFarland standard ˜1 in 0.89% sterile saline solution) was prepared as per Biolog “Instructions for Use” handbook, with the exception that leucine was added to correct for mutants housed in strains which were in a leucine-deficient background. Inoculum was added to Biolog GN or ES plates and incubated at the semipermissive temperature of 35° C. overnight (˜21 hr). Carbon source utilization is read colorimetrically in a microplate reader at 600 nm. Substrates that are not used similarly by wild-type and mutant are identified. […] Typically, these steps were performed using Biolog MT plates or by using a redox indicator (such as tetrazolium violet, 0.0001%) in a minimal medium with a sole carbon source (substrate being tested), supplemented with a small amount of tryptone (0.06%) or proteose peptone (0.2%). It was possible to do this in 96-well microtiter plate format, which will be adaptable to high throughput or multichannel screening."}, "[2]": {"tested_on": "Salmonella typhimurium temperature sensitive mutant gyrA212 (strain 7533)", "format": "cell-based", "text": "A Salmonella typhimurium parent strain 7389 was used to form a collection of temperature sensitive mutants. […] Complementation of the mutant phenotype was done. In the case of the three mutants described in the data of this figure (gyrA202, gyrA208, gyrA212) the complemented mutants were identified to be in the A subunit of the bacterial DNA gyrase enzyme. Each mutant was altered in a different portion (see number of mutant) of the A subunit. […] The data are expressed as fold increases in susceptibility. A four-fold increase in susceptibility is the minimum change to be considered significant in this example.\nReferring to FIG. 1, the experiments were essentially by the methods outlined by the National Committee for Clinical Laboratory Standards (NCCLS). Bacteria were grown in Mueller-Hinton (MH) broth with agitation at 30° C.\nThe antibiotic dilution ranges used were:\nNovobiocin: Range 128-0 μg/ml. Coumermycin A1: Range 128-0 μg/ml. […] Norfloxacin: Range 8-0 μg/ml. Mitomycin C: Range 8-0 μg/ml Phenylmercuric acetate: Range 32-0 μg/ml. 4-Nitroquinoline Oxide: Range 32-0 μM Rifampicin: Range 128-0 μg/ml. Gentamicin: Range 32-0 μg/ml. Streptomycin: Range 128-0 μg/ml. Cefotaxime: Range 8-0 μg/ml. Ampicillin: Range 32-0 μg/ml. Phosphonomycin (or fosfomycin): Range 128-0 μg/ml. […]"}, "[3]": {"settings": "wild type with sub-MIC levels of antibiotic"}, "[4]": {"settings": "wild type with sub-MIC levels of antibiotic, Biolog GN plates, 35° C."}},
  "data": [
    {"smiles": "Cn1nnnc1SCC1=C(C(=O)O)N2C(=O)[C@@H](NC(=O)[C@H](O)c3ccccc3)[C@H]2SC1", "note": "[cefamandole]", "values": [
      {"measurement": "utilization of D-alanine or D-serine as carbon source markers", "setting": "[1]; wild type strain, sub-MICs of cell wall synthesis inhibitor", "value": "affected"},
      {"measurement": "overlap of carbon source utilization phenotype with the gyraseA/ciprofloxacin induced phenotype", "setting": "[1]; [3]", "value": 40, "unit": "%"}
    ]},
    {"smiles": "O=C(O)c1cn(C2CC2)c2cc(N3CCNCC3)c(F)cc2c1=O", "note": "[ciprofloxacin]", "values": [
      {"measurement": "carbon source utilization phenotype compared with one of the gyraseA mutant alleles", "setting": "[1]; [4]", "value": "reproduces the phenotype of one of the mutant alleles perfectly"},
      {"measurement": "overlap of carbon source utilization phenotype with the other two gyraseA mutant alleles", "setting": "[1]; [4]", "value": "46-71%"}
    ]},
    {"smiles": "O=C(N[C@H](CO)[C@H](O)c1ccc([N+](=O)[O-])cc1)C(Cl)Cl", "note": "[chloramphenicol]", "values": [
      {"measurement": "overlap of carbon source utilization phenotype with the gyraseA/ciprofloxacin induced phenotype", "setting": "[1]; [3]", "value": 40, "unit": "%"}
    ]},
    {"smiles": "CCn1cc(C(=O)O)c(=O)c2cc(F)c(N3CCNCC3)cc21", "note": "[norfloxacin]", "values": [
      {"measurement": "fold increase in susceptibility", "setting": "[2]", "value": 8, "unit": "fold"}
    ]},
    {"smiles": "CO[C@@H]1[C@@H](OC(N)=O)[C@@H](O)[C@H](Oc2ccc3c(O)c(NC(=O)c4ccc(O)c(CC=C(C)C)c4)c(=O)oc3c2C)OC1(C)C", "note": "[novobiocin]", "values": [
      {"measurement": "carbon source utilization phenotype compared with gyraseA mutants and the ciprofloxacin induced phenotype", "setting": "[1]; [3]", "value": "very similar phenotype"}
    ]}
  ]
}
